Assay results as given in patent US11065257B2, “Substituted pyrazoloazepin-4-ones and their use as phosphodiesterase inhibitors” (LEO Pharma A/S, priority 2016, dated 2021).

target: T1, human PDE4D catalytic domain (Homo sapiens, UniProt Q08499); assay: PDE4 Assay; assay type: biochemical; conditions: human PDE4D catalytic domain (S380-L740), TR-FRET with FAM-cAMP; expressed as a range of IC50; read-out: PDE4 Potency Range
T1 construct: UniProt no; Q08499 [S380-L740]
Method: The human PDE4D catalytic domain (UniProt no. Q08499 [S380-L740]) was incubated with a mixture of non-labelled cAMP (cyclic adenosine monophosphate) and fluorescein amidite (FAM) conjugated cAMP and titrated test or reference compound. Following brief incubation the enzymatic reaction was stopped by addition of binding buffer containing nanoparticles with immobilized trivalent metal ions capable of binding 1) AMP phospho groups and 2) terbium (Tb) donor fluorophores. Subsequent excitation of the Tb donor triggers time-resolved FRET to adjacent FAM acceptor molecules resulting in light emission. In the presence of a PDE4 inhibitor, AMP generation was reduced resulting in a lower fluorescence signal. The cAMP phosphodiester is not bound by the detection system.
The results were calculated as the molar concentrations resulting in 50% inhibition of the substrate cleavage compared to controls samples, and are expressed as a range of IC50 (nM).

T1 sequence (Q08499 380-740): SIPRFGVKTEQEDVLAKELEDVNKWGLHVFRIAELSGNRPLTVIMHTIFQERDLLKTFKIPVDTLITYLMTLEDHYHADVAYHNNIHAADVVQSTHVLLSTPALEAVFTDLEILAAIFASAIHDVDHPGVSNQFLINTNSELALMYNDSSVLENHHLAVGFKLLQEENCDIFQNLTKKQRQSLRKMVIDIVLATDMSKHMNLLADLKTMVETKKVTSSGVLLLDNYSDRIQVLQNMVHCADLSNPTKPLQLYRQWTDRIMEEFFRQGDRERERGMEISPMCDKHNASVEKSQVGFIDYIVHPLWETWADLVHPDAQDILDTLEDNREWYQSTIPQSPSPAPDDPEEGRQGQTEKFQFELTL

How did the IC50 turn out when CCc1nn(CCCOC(=O)c2cc(C)no2)c2c1C(=O)NCC1(CCOCC1)C2 [Example 43, 3-(3-ethyl-4-oxo-spiro[6,8-dihydro-5H-pyrazolo[4,3-c]azepine-7,4′-tetrahydropyran]-1-yl)propyl 3-methylisoxazole-5-carboxylate] was run?
The IC50 was 100 to 500 nM.

CCc1nn(CCCOC(=O)c2coc(C3CC3)n2)c2c1C(=O)NCC1(CCOCC1)C2 [Example 89, 3-(3-ethyl-4-oxo-spiro[6,8-dihydro-5H-pyrazolo[4,3-c]azepine-7,4′-tetrahydropyran]-1-yl)propyl 2-cyclopropyloxazole-4-carboxylate] was tested. Which IC50 did it give?
The IC50 was 100 to 500 nM.

How did the IC50 turn out when CCc1nn(CCCOC(=O)c2ccon2)c2c1C(=O)NCC1(CCOCC1)C2 [Example 21, 3-(3-ethyl-4-oxo-spiro[6,8-dihydro-5H-pyrazolo[4,3-c]azepine-7,4′-tetrahydropyran]-1-yl)propyl isoxazole-3-carboxylate] was run?
The IC50 was > 500 nM.

How did the IC50 turn out when CCc1nn(CCCOC(=O)c2c[nH]cn2)c2c1C(=O)NCC1(CCOCC1)C2 [Example 17, 3-(3-ethyl-4-oxo-spiro[6,8-dihydro-5H-pyrazolo[4,3-c]azepine-7,4′-tetrahydropyran]-1-yl)propyl 1H-imidazole-4-carboxylate] was run?
Its IC50 is > 500 nM.

CCc1nn(CCCOC(=O)c2ccnnc2C)c2c1C(=O)NCC1(CCOCC1)C2 [Example 67, 3-(3-ethyl-4-oxo-spiro[6,8-dihydro-5H-pyrazolo[4,3-c]azepine-7,4′-tetrahydropyran]-1-yl)propyl 3-methylpyridazine-4-carboxylate] was tested. Which IC50 did it give?
Its IC50 is > 500 nM.

CCc1noc(CC)c1C(=O)OCCCn1nc(CC)c2c1CC1(CCOCC1)CNC2=O [Example 97, 3-(3-ethyl-4-oxo-spiro[6,8-dihydro-5H-pyrazolo[4,3-c]azepine-7,4′-tetrahydropyran]-1-yl)propyl 3,5-diethylisoxazole-4-carboxylate] was tested. Which IC50 did it give?
The IC50 was 100 to 500 nM.

With CCc1nn(C[C@@H](C)COC(=O)C2CCOC2)c2c1C(=O)NCC1(CCOCC1)C2 (stereo partly drawn) [Example 108, [(2R)-3-(3-ethyl-4-oxo-spiro[6,8-dihydro-5H-pyrazolo[4,3-c]azepine-7,4′-tetrahydropyran]-1-yl)-2-methyl-propyl] tetrahydrofuran-3-carboxylate] as the compound, how does the IC50 read?
The IC50 was < 100 nM.

How did the IC50 turn out when CCc1nn(CCCOC(=O)c2cnc(C)s2)c2c1C(=O)NCC1(CCOCC1)C2 [Example 82, 3-(3-ethyl-4-oxo-spiro[6,8-dihydro-5H-pyrazolo[4,3-c]azepine-7,4′-tetrahydropyran]-1-yl)propyl 2-methylthiazole-5-carboxylate] was run?
The IC50 was 100 to 500 nM.

With CCc1nn(CCCOC(=O)c2nc[nH]n2)c2c1C(=O)NCC1(CCOCC1)C2 [Example 26, 3-(3-ethyl-4-oxo-spiro[6,8-dihydro-5H-pyrazolo[4,3-c]azepine-7,4′-tetrahydropyran]-1-yl)propyl 1H-1,2,4-triazole-3-carboxylate] as the compound, how does the IC50 read?
The IC50 was > 500 nM.

For CCc1nn(CCCOC(=O)c2ncccc2C)c2c1C(=O)NCC1(CCOCC1)C2 [Example 62, 3-(3-ethyl-4-oxo-spiro[6,8-dihydro-5H-pyrazolo[4,3-c]azepine-7,4′-tetrahydropyran]-1-yl)propyl 3-methylpyridine-2-carboxylate], which IC50 is on record?
The IC50 was > 500 nM.

With CCc1nn(CCCOC(=O)c2nc(C)c(C)s2)c2c1C(=O)NCC1(CCOCC1)C2 [Example 94, 3-(3-ethyl-4-oxo-spiro[6,8-dihydro-5H-pyrazolo[4,3-c]azepine-7,4′-tetrahydropyran]-1-yl)propyl 4,5-dimethylthiazole-2-carboxylate] as the compound, how does the IC50 read?
The IC50 was 100 to 500 nM.

With CCc1nn(CCCOC(=O)c2noc(C)c2C)c2c1C(=O)NCC1(CCOCC1)C2 [Example 74, 3-(3-ethyl-4-oxo-spiro[6,8-dihydro-5H-pyrazolo[4,3-c]azepine-7,4′-tetrahydropyran]-1-yl)propyl 4,5-dimethylisoxazole-3-carboxylate] as the compound, how does the IC50 read?
Its IC50 is 100 to 500 nM.

With CCc1nn(CCCOC(=O)c2cnsc2C)c2c1C(=O)NCC1(CCOCC1)C2 [Example 79, 3-(3-ethyl-4-oxo-spiro[6,8-dihydro-5H-pyrazolo[4,3-c]azepine-7,4′-tetrahydropyran]-1-yl)propyl 5-methylisothiazole-4-carboxylate] as the compound, how does the IC50 read?
Its IC50 is 100 to 500 nM.

With CCc1nn(CCCOC(=O)C2CCCS(=O)(=O)C2)c2c1C(=O)NCC1(CCOCC1)C2 (stereo not drawn) [Example 102, 3-(3-ethyl-4-oxo-spiro[6,8-dihydro-5H-pyrazolo[4,3-c]azepine-7,4′-tetrahydropyran]-1-yl)propyl 1,1-dioxothiane-3-carboxylate] as the compound, how does the IC50 read?
Its IC50 is > 500 nM.

With CCc1nn(CCCOC(=O)c2nc(C)oc2C)c2c1C(=O)NCC1(CCOCC1)C2 [Example 76, 3-(3-ethyl-4-oxo-spiro[6,8-dihydro-5H-pyrazolo[4,3-c]azepine-7,4′-tetrahydropyran]-1-yl)propyl 2,5-dimethyloxazole-4-carboxylate] as the compound, how does the IC50 read?
Its IC50 is > 500 nM.

CCc1nn(CCCOC(=O)c2cc(O)no2)c2c1C(=O)NCC1(CCOCC1)C2 [Example 52, 3-(3-ethyl-4-oxo-spiro[6,8-dihydro-5H-pyrazolo[4,3-c]azepine-7,4′-tetrahydropyran]-1-yl)propyl 3-hydroxyisoxazole-5-carboxylate] was tested. Which IC50 did it give?
The IC50 was 100 to 500 nM.

Which IC50 does the source give for CCc1nn(CCCOC(=O)c2sc(OC)nc2C)c2c1C(=O)NCC1(CCOCC1)C2 [Example 100, 3-(3-ethyl-4-oxo-spiro[6,8-dihydro-5H-pyrazolo[4,3-c]azepine-7,4′-tetrahydropyran]-1-yl)propyl 2-methoxy-4-methyl-thiazole-5-carboxylate] here?
Its IC50 is 100 to 500 nM.

For CCc1nn(CCCOC(=O)C2CCSC2)c2c1C(=O)NCC1(CCOCC1)C2 (stereo not drawn) [Example 60, 3-(3-ethyl-4-oxo-spiro[6,8-dihydro-5H-pyrazolo[4,3-c]azepine-7,4′-tetrahydropyran]-1-yl)propyl tetrahydrothiophene-3-carboxylate], which IC50 is on record?
The IC50 was 100 to 500 nM.

For CCc1nn(CCCOC(=O)c2cn[nH]c2)c2c1C(=O)NCC1(CCOCC1)C2 [Example 20, 3-(3-ethyl-4-oxo-spiro[6,8-dihydro-5H-pyrazolo[4,3-c]azepine-7,4′-tetrahydropyran]-1-yl)propyl 1H-pyrazole-4-carboxylate], which IC50 is on record?
The IC50 was 100 to 500 nM.

How did the IC50 turn out when CCc1nn(CCCOC(=O)c2ccnc(C)n2)c2c1C(=O)NCC1(CCOCC1)C2 [Example 68, 3-(3-ethyl-4-oxo-spiro[6,8-dihydro-5H-pyrazolo[4,3-c]azepine-7,4′-tetrahydropyran]-1-yl)propyl 2-methylpyrimidine-4-carboxylate] was run?
Its IC50 is > 500 nM.

For CCc1nn(CCCOC(=O)c2ccc(C)nc2C)c2c1C(=O)NCC1(CCOCC1)C2 [Example 87, 3-(3-ethyl-4-oxo-spiro[6,8-dihydro-5H-pyrazolo[4,3-c]azepine-7,4′-tetrahydropyran]-1-yl)propyl 2,6-dimethylpyridine-3-carboxylate], which IC50 is on record?
The IC50 was < 100 nM.

With CCc1nn(CCCOC(=O)c2ncc[nH]2)c2c1C(=O)NCC1(CCOCC1)C2 [Example 19, 3-(3-ethyl-4-oxo-spiro[6,8-dihydro-5H-pyrazolo[4,3-c]azepine-7,4′-tetrahydropyran]-1-yl)propyl 1H-imidazole-2-carboxylate] as the compound, how does the IC50 read?
The IC50 was > 500 nM.

CCc1nn(CCCOC(=O)c2cnn(C)c2)c2c1C(=O)NCC1(CCOCC1)C2 [Example 38, 3-(3-ethyl-4-oxo-spiro[6,8-dihydro-5H-pyrazolo[4,3-c]azepine-7,4′-tetrahydropyran]-1-yl)propyl 1-methylpyrazole-4-carboxylate] was tested. Which IC50 did it give?
The IC50 was 100 to 500 nM.

How did the IC50 turn out when CCc1nn(CCCOC(=O)c2nccc(C)n2)c2c1C(=O)NCC1(CCOCC1)C2 [Example 69, 3-(3-ethyl-4-oxo-spiro[6,8-dihydro-5H-pyrazolo[4,3-c]azepine-7,4′-tetrahydropyran]-1-yl)propyl 4-methylpyrimidine-2-carboxylate] was run?
Its IC50 is > 500 nM.

CCc1nn(CCOC(=O)c2cnn(C)c2)c2c1C(=O)NCC1(CCOCC1)C2 [Example 3, 2-(3-ethyl-4-oxo-spiro[6,8-dihydro-5H-pyrazolo[4,3-c]azepine-7,4′-tetrahydropyran]-1-yl)ethyl 1-methylpyrazole-4-carboxylate] was tested. Which IC50 did it give?
The IC50 was > 500 nM.

How did the IC50 turn out when CCc1nn(CCOC(=O)c2cc(C)n(C)n2)c2c1C(=O)NCC1(CCOCC1)C2 [Example 10, 2-(3-ethyl-4-oxo-spiro[6,8-dihydro-5H-pyrazolo[4,3-c]azepine-7,4′-tetrahydropyran]-1-yl)ethyl 1,5-dimethylpyrazole-3-carboxylate] was run?
The IC50 was > 500 nM.

For CCc1nn(CCCOC(=O)c2ncsc2C)c2c1C(=O)NCC1(CCOCC1)C2 [Example 80, 3-(3-ethyl-4-oxo-spiro[6,8-dihydro-5H-pyrazolo[4,3-c]azepine-7,4′-tetrahydropyran]-1-yl)propyl 5-methylthiazole-4-carboxylate], which IC50 is on record?
The IC50 was 100 to 500 nM.

How did the IC50 turn out when CCc1nn(CCOC(=O)c2cc(C)on2)c2c1C(=O)NCC1(CCOCC1)C2 [Example 4, 2-(3-ethyl-4-oxo-spiro[6,8-dihydro-5H-pyrazolo[4,3-c]azepine-7,4′-tetrahydropyran]-1-yl)ethyl 5-methylisoxazole-3-carboxylate] was run?
Its IC50 is 100 to 500 nM.

Which IC50 does the source give for CCc1nn(CCOC(=O)c2ccno2)c2c1C(=O)NCC1(CCOCC1)C2 [Example 1, 2-(3-ethyl-4-oxo-spiro[6,8-dihydro-5H-pyrazolo[4,3-c]azepine-7,4′-tetrahydropyran]-1-yl)ethyl isoxazole-5-carboxylate] here?
The IC50 was 100 to 500 nM.

For CCc1nn(CCOC(=O)c2cocn2)c2c1C(=O)NCC1(CCOCC1)C2 [Example 2, 2-(3-ethyl-4-oxo-spiro[6,8-dihydro-5H-pyrazolo[4,3-c]azepine-7,4′-tetrahydropyran]-1-yl)ethyl oxazole-4-carboxylate], which IC50 is on record?
The IC50 was > 500 nM.
